What was measured:
Plasmopara viticola = Plasmopara viticola test in grape, preventive; assay type: in vivo; settings: 50 ppm spray, grape seedlings inoculated one day after treatment; for pest or weed control at 50 ppm: Plasmopara viticola, read-out: control (disease severity) compared to the untreated check
Protocol: Example B: Plasmopara viticola Test in Grape
Compounds were dissolved in 2% DMSO/Acetone & then mixed with water to calibrated spray volume of 50 ml. This 50 ml spray solution was poured into the spray bottles for further applications.
To test the preventive activity of compounds, five week old healthy grape seedlings raised in the greenhouse were sprayed with active compound preparation at the stated application rates inside the spray cabinets using hallow-cone nozzles. One day after treatment, the plants were inoculated with inoculum suspension (Cold sterile water) containing 6×10^6 Plasmopara viticola inoculum. The inoculated plants were then kept in greenhouse chamber at 18-21° C. temperature and 95-100% relative humidity for disease expression. Compounds
A visual assessment of compound's performance was carried by rating the disease severity (0-100% scale) on treated plants on 3, 7, 10 and 15 days after application. Efficacy (% control) of the compounds was calculated by comparing the disease rating in the treatment with untreated control. The sprayed plants were also assessed for compound's phytotoxic effects by recording symptoms like necrosis, chlorosis and stunting.

Phytophthora infestans [1] = experiment: whole plant or invertebrate; assay type: in vivo; settings: for pest or weed control at 50 ppm: Phytophthora infestans, in Solanum lycopersicum, read-out: control (disease severity) compared to the untreated check; for control (disease severity) compared to the untreated check: 50 ppm spray, preventive, Tomato plants inoculated one day after treatment
Phytophthora infestans [2] = experiment: microbe, parasite or virus in culture; assay type: cell-based; settings: for inhibition of growth at 30 ppm: Phytophthora infestans, 168 h, read-out: control (radial growth) compared to the untreated check; for control (radial growth) compared to the untreated check: 30 ppm in Rye Agar medium, seven days at 18° C.

SMILES	pest or weed control at 50 ppm (Plasmopara viticola)	pest or weed control at 50 ppm (Phytophthora infestans [1])	inhibition of growth at 30 ppm (Phytophthora infestans [2])	further results
O=C(COc1ncccc1C(F)F)N1CCC(c2nc(C3=NOC(c4c(Cl)cc(Cl)cc4Cl)C3)cs2)CC1 (stereo not shown) [Compound 87]	90%	90%	70%	–
Cc1cccnc1OCC(=O)N1CCC(c2nc(C3=NOC(c4c(Cl)cc(Cl)cc4Cl)C3)cs2)CC1 (stereo not shown) [Compound 79]	90%	90%	70%	–
Cc1ccc(C(F)(F)F)c(OCC(=O)N2CCC(c3nc(C4=NOC(c5c(Cl)cccc5OS(C)(=O)=O)C4)cs3)CC2)n1 (stereo not shown) [Compound 42, 3-chloro-2-(3-(2-(1-(2-((6-methyl-3-(trifluoromethyl)pyridin-2-yl)oxy)acetyl)piperidin-4-yl)thiazol-4-yl)-4,5-dihydroisoxazol-5-yl)phenyl methanesulfonate]	90%	90%	70%	–
Cn1nc(OCC(=O)N2CCC(c3nc(C4=NOC(c5c(Cl)cccc5Cl)C4)cs3)CC2)cc1C(F)(F)F (stereo not shown) [Compound 15, 1-(4-(4-(5-(2,6-dichlorophenyl)-4,5-dihydroisoxazol-3-yl)thiazol-2-yl)piperidin-1-yl)-2-((1-methyl-5-(trifluoromethyl)-1H-pyrazol-3-yl)oxy)ethan-1-one]	90%	90%	70%	–
O=C(COc1ncc(Br)cc1C(F)(F)F)N1CCC(c2nc(C3=NOC(c4c(F)cccc4F)C3)cs2)CC1 (stereo not shown) [Compound 37, 2-((5-bromo-3-(trifluoromethyl)pyridin-2-yl)oxy)-1-(4-(4-(5-(2,6-difluorophenyl)-4,5-dihydroisoxazol-3-yl)thiazol-2-yl)piperidin-1-yl)ethan-1-one]	90%	90%	70%	–
O=C(CSc1ncccc1C(F)(F)F)N1CCC(c2nc(C3=NOC(c4c(F)cccc4F)C3)cs2)CC1 (stereo not shown) [Compound 62, 1-(4-(4-(5-(2,6-difluorophenyl)-4,5-dihydroisoxazol-3-yl)thiazol-2-yl)piperidin-1-yl)-2-((3-(trifluoromethyl)pyridin-2-yl)thio)ethan-1-one]	90%	90%	70%	–
O=C(COc1ncc(Br)cc1C(F)(F)F)N1CCC(c2nc(C3=NOC(c4c(Cl)cc(Cl)cc4Cl)C3)cs2)CC1 (stereo not shown) [Compound 38]	–	–	–	control (disease severity) compared to the untreated check (Plasmopara viticola): 90%; control (disease severity) compared to the untreated check (Phytophthora infestans [1]): 90%; control (radial growth) compared to the untreated check (Phytophthora infestans [2]): 70%
Cc1ccc(C(F)(F)F)c(OCC(=O)N2CCC(c3nc(C4=NOC(c5c(Cl)cc(Cl)cc5Cl)C4)cs3)CC2)n1 (stereo not shown) [Compound 39, 2-((6-methyl-3-(trifluoromethyl)pyridin-2-yl)oxy)-1-(4-(4-(5-(2,4,6-trichlorophenyl)-4,5-dihydroisoxazol-3-yl)thiazol-2-yl)piperidin-1-yl)ethan-1-one]	90%	90%	70%	–
CS(=O)(=O)Oc1cccc(Cl)c1C1CC(c2csc(C3CCN(C(=O)COc4ncc(C(F)(F)F)cc4Br)CC3)n2)=NO1 (stereo not shown) [Compound 52]	90%	90%	70%	–
Cc1ccc(C(F)(F)F)c(OCC(=O)N2CCC(c3nc(C4=NOC(c5c(Cl)cccc5Cl)C4)cs3)CC2)n1 (stereo not shown) [Compound 41, 1-(4-(4-(5-(2,6-dichlorophenyl)-4,5-dihydroisoxazol-3-yl)thiazol-2-yl)piperidin-1-yl)-2-((6-methyl-3-(trifluoromethyl)pyridin-2-yl)oxy)ethan-1-one]	90%	90%	70%	–
Cc1ccc(C(F)(F)F)c(OCC(=O)N2CCC(c3nc(C4=NOC(c5c(F)cccc5F)C4)cs3)CC2)n1 (stereo not shown) [Compound 40, 1-(4-(4-(5-(2,6-difluorophenyl)-4,5-dihydroisoxazol-3-yl)thiazol-2-yl)piperidin-1-yl)-2-((6-methyl-3-(trifluoromethyl)pyridin-2-yl)oxy)ethan-1-one]	–	90%	70%	–
CS(=O)(=O)Oc1cccc(Cl)c1C1CC(c2csc(C3CCN(C(=O)COc4ncc(Cl)cc4C(F)(F)F)CC3)n2)=NO1 (stereo not shown) [Compound 32, 3-chloro-2-(3-(2-(1-(2-((5-chloro-3-(trifluoromethyl)pyridin-2-yl)oxy)acetyl)piperidin-4-yl)thiazol-4-yl)-4,5-dihydroisoxazol-5-yl)phenyl methanesulfonate]	90%	90%	70%	–
O=C(COc1ncccc1C(F)(F)F)N1CCC(c2nc(C3=NOC(c4c(Cl)cccc4Cl)C3)cs2)CC1 (stereo not shown) [Compound 27]	90%	90%	70%	–
CS(=O)(=O)Oc1cccc(Cl)c1C1CC(c2csc(C3CCN(C(=O)COc4ncccc4C(F)(F)F)CC3)n2)=NO1 (stereo not shown) [Compound 28, 3-chloro-2-(3-(2-(1-(2-((3-(trifluoromethyl)pyridin-2-yl)oxy)acetyl)piperidin-4-yl)thiazol-4-yl)-4,5-dihydroisoxazol-5-yl)phenyl methanesulfonate]	–	90%	70%	–
COc1ccc(C2CC(c3csc(C4CCN(C(=O)COc5ncc(Cl)cc5C(F)(F)F)CC4)n3)=NO2)cc1 (stereo not shown) [Compound 67]	–	–	–	control (disease severity) compared to the untreated check (Phytophthora infestans [1]): 90%; control (radial growth) compared to the untreated check (Phytophthora infestans [2]): 70%
Cn1ccc(OCC(=O)N2CCC(c3nc(C4=NOC(c5c(Cl)cccc5OS(C)(=O)=O)C4)cs3)CC2)n1 (stereo not shown) [Compound 5, 3-chloro-2-(3-(2-(1-(2-((1-methyl-1H-pyrazol-3-yl)oxy)acetyl)piperidin-4-yl)thiazol-4-yl)-4,5-dihydroisoxazol-5-yl)phenyl methanesulfonate]	–	–	70%	–
CS(=O)(=O)Oc1cccc(Cl)c1C1CC(c2csc(C3CCN(C(=O)COc4ccc(C(F)(F)F)cn4)CC3)n2)=NO1 (stereo not shown) [Compound 48, 3-chloro-2-(3-(2-(1-(2-((5-(trifluoromethyl)pyridin-2-yl)oxy)acetyl)piperidin-4-yl)thiazol-4-yl)-4,5-dihydroisoxazol-5-yl)phenyl methanesulfonate]	–	–	70%	–
Cc1cnc(OCC(=O)N2CCC(c3nc(C4=NOC(c5c(Cl)cc(Cl)cc5Cl)C4)cs3)CC2)c(C(F)(F)F)c1 (stereo not shown) [Compound 83, 2-((5-methyl-3-(trifluoromethyl)pyridin-2-yl)oxy)-1-(4-(4-(5-(2,4,6-trichlorophenyl)-4,5-dihydroisoxazol-3-yl)thiazol-2-yl)piperidin-1-yl)ethan-1-one]	–	–	70%	–
Cc1cnc(OCC(=O)N2CCC(c3nc(C4=NOC(c5c(Cl)cccc5OS(C)(=O)=O)C4)cs3)CC2)c(C(F)(F)F)c1 (stereo not shown) [Compound 85, 3-chloro-2-(3-(2-(1-(2-((5-methyl-3-(trifluoromethyl)pyridin-2-yl)oxy)acetyl)piperidin-4-yl)thiazol-4-yl)-4,5-dihydroisoxazol-5-yl)phenyl methanesulfonate]	–	–	70%	–
O=C(COc1ccc(C(F)(F)F)cn1)N1CCC(c2nc(C3=NOC(c4c(F)cccc4F)C3)cs2)CC1 (stereo not shown) [Compound 49, 1-(4-(4-(5-(2,6-difluorophenyl)-4,5-dihydroisoxazol-3-yl)thiazol-2-yl)piperidin-1-yl)-2-((5-(trifluoromethyl)pyridin-2-yl)oxy)ethan-1-one]	–	–	70%	–
O=C(COc1cc(C(F)(F)F)ccn1)N1CCC(c2nc(C3=NOC(c4c(F)cccc4F)C3)cs2)CC1 (stereo not shown) [Compound 43]	–	–	70%	–
O=C(CSc1ncccc1C(F)(F)F)N1CCC(c2nc(C3=NOC(c4c(Cl)cc(Cl)cc4Cl)C3)cs2)CC1 (stereo not shown) [Compound 63]	–	–	70%	–
CS(=O)(=O)Oc1cccc(Cl)c1C1CC(c2csc(C3CCN(C(=O)COc4cccc(C(F)(F)F)n4)CC3)n2)=NO1 (stereo not shown) [Compound 71, 3-chloro-2-(3-(2-(1-(2-((6-(trifluoromethyl)pyridin-2-yl)oxy)acetyl)piperidin-4-yl)thiazol-4-yl)-4,5-dihydroisoxazol-5-yl)phenyl methanesulfonate]	–	–	70%	–
O=C(COc1cccc(C(F)(F)F)n1)N1CCC(c2nc(C3=NOC(c4c(Cl)cccc4Cl)C3)cs2)CC1 (stereo not shown) [Compound 70, 1-(4-(4-(5-(2,6-dichlorophenyl)-4,5-dihydroisoxazol-3-yl)thiazol-2-yl)piperidin-1-yl)-2-((6-(trifluoromethyl)pyridin-2-yl)oxy)ethan-1-one]	–	–	70%	–
O=C(COc1ccc(C(F)(F)F)cn1)N1CCC(c2nc(C3=NOC(c4c(Cl)cccc4Cl)C3)cs2)CC1 (stereo not shown) [Compound 47, 1-(4-(4-(5-(2,6-dichlorophenyl)-4,5-dihydroisoxazol-3-yl)thiazol-2-yl)piperidin-1-yl)-2-((5-(trifluoromethyl)pyridin-2-yl)oxy)ethan-1-one]	–	–	70%	–

From patent US20200281202A1 (priority 2017, published 2020)
